Measured values taken from US20230210757A1, “IMPROVEMENTS IN OR RELATING TO ORGANIC COMPOUNDS” (Givaudan SA, priority 2020, published 2023).

How the values were obtained:
[1] = system: pigmented ageing spots on hands; assay: Clinical test, pigmented spots on hands of Caucasian volunteers, Mexameter analysis; format: in vivo, human; settings: cream 0.3% twice daily
Procedure: The study was a double-blind, randomized and placebo controlled study. The assessment was based on an intra-subject comparison between the results obtained with cream HEX at 3% (active product), cream Phenylethyl resorcinol at 0.3% and the cream placebo. The measurements were taken in controlled-atmosphere at a temperature of 21±1° C. and a humidity of 50*10%. This study was performed on 39 volunteers (healthy Caucasian woman aged from 50 to 75 years, mean age: 61.7±5.6 years) having pigmented ageing spots on their hands.
The study was carried out on 2 groups of around 20 volunteers each (39 volunteer in total aged from […]). A cream formula was applied twice daily on hands. Evaluation was carried out before treatment and after 28 and 56 days. Group 1 has applied placebo on one hand and HEX at 3% on the other hand, and group 2 has tested HEX at 3% on one hand versus Phenylethyl Resorcinol at 0.3% on the other hand.
The measurement is based on the absorption principle. The MEXAMETER MX 18 probe emits radiation of three defined wavelengths. A receiver measures the reflection of the light reflected by the skin. The position of the transmitter and receiver ensures that only diffuse light is measured. With a defined amount of emitted light the amount of light absorbed by the skin can be calculated. Melanin is measured by two wavelengths. […]

[2] = system: pigmented ageing spots on face; assay: Clinical test, pigmented spots on face of Asian volunteers, VISIA ageing spot analysis; format: in vivo, human; settings: cream 0.3% twice daily
Procedure: (§1) The study was a double-blind, randomized and placebo controlled study. The assessment was based on an inter-subject comparison between the results obtained with cream HEX at 3% (active product), cream Phenylethyl resorcinol at 0.3% and the cream placebo. The measurements were taken in controlled-atmosphere at a temperature of 21±1° C. and a humidity of 50±10%. This study was performed on 72 volunteers (healthy Asian woman aged from 45 to 85 years), having pigmented ageing spots on their faces.
The study was carried out on 2 groups of 36 volunteers each (72 volunteer in total). A cream formula was applied twice daily on face. Evaluation was carried out before treatment and after 28 and 56 days. Group 1 has applied placebo on one side of the face and HEX at 3% on the other side of the face Group 2 has tested HEX at 3% on one side of the face versus Phenylethyl Resorcinol at 0.3% on the other side of the face. […]
Under standard light, visible spots can be evaluated, in particular by visualisation of brown or red skin lesions including freckles, acne scars, hyper-pigmentation and vascular lesions. With cross polarized light in combination with Canfield's RBX® Technology brown spots can be evaluated, in particular by analysis of subsurface melanin conditions. […] The results are given in number of lesions, which is a count of lesions detected by the device, regardless of their size or intensity.

[3] = system: skin explants (Caucasian, Asian, African); assay: Ex vivo whitening efficacy on skin explants (Fontana Masson staining, expert scoring of basal cells); format: cell-based, human; settings: topical daily 14 days, vs untreated, extract 3%, Phenylethyl resorcinol 0.5%, hydroquinone 2%
Procedure: Skin fragments from 3 Asian, 3 African and 3 Caucasian subjects were cut into 1 cm^2 pieces and washed three times using antibiotics. Subcutaneous fat and lower dermis were mechanically removed under a stereomicroscope using a surgical scalpel. Skin biopsies were placed with the epithelium uppermost at an air/liquid interface on culture inserts (filter pore size 12 μm; Costar, VWR International, Fontenay-sous-Bois, France). These inserts were set on twelve wells plate for 14 days at 37° C. in a humidified incubator with 5% CO2. Medium was added to the wells so that the surface of the medium was levelled with the filter. Organ cultures were conserved with Dulbecco's […] (Invitrogen Corporation, Paisley, UK) containing antibiotic, L-glutamine, bovine pituitary extract, growth factors and fetal calf serum (DAP, Neuf-Brisach, France). […] elongata extract 3% (unpurified extract), Phenylethyl resorcinol 0.5% and hydroquinone 2% (SIGMA H9003) as positive control were topically applied daily during 14 days on the epidermis of the skin fragments, in comparison with untreated skin. […] For testing the depigmentation product, the melanin pigment present in the melanocytes and in the contiguous keratinocytes of the basal cell layer of the epidermis from treated skin in comparison with untreated skin is evaluated. Samples were formalin-fixed at day 14 and paraffin-embedded Sections (4 μm) were then stained by Fontana Masson silver method for melanin (see example 4iii). A quantitative numeration of cells containing melanin pigments was made under an optical microscope at ×40 magnification on about 300 basal cells of the epidermis, Two types of cells were counted: • score 1: unpigmented cells or cells presenting rare melanin pigments isolated in the cytoplasm • score 3: cells presenting important melanin pigment in all over the cytoplasm Epidermal melanin content was calculated as the percentage of the epidermal cells in each scoring.

[4] = system: pigmented ageing spots on face; assay: Clinical test, face of Asian volunteers, spectrocolorimeter measurement; format: in vivo, human; settings: HEX cream 3% or Phenylethyl resorcinol cream 0.3% twice daily, after 28 and 56 days
Procedure: as §1
The study was carried out on 2 groups of 36 volunteers each (72 volunteer in total). A cream formula was applied twice daily on face. Evaluation was carried out before treatment and after 28 and 56 days. Group 1 has applied placebo on one side of the face and HEX at 3% on the other side of the face Group 2 has tested HEX at 3% on one side of the face versus Phenylethyl Resorcinol at 0.3% on the other side of the face.
Skin colorimetric measurement was done with a MINOLTA CM700-d Spectrophotometer® equipped with a 8 mm diameter head. The Spectrophotometer® converts colours perceived by human to a digital code composed of three parameters:
L*: for clarity (from dark to light),
a*: for the green-to-red spectrum,
b*: for the blue-to-yellow spectrum.
a* and b* are chrominance parameters and L* is a luminance parameter. […]

[5] = system: hyperpigmentation spots on face; assay: Clinical test, hyperpigmented spots on face of African volunteers, Mexameter analysis; format: in vivo, human
Procedure: The measurement is based on the absorption principle. The MEXAMETER MX 18 probe emits radiation of three defined wavelengths. A receiver measures the reflection of the light reflected by the skin. The position of the transmitter and receiver ensures that only diffuse light is measured. With a defined amount of emitted light the amount of light absorbed by the skin can be calculated. Melanin is measured by two wavelengths. The wavelengths were chosen according to the different absorption peaks of the melanin pigments. For the measurement of erythema (redness of skin), two different wavelengths are used to measure the absorption capacity of the epidermis. One of them corresponds to the absorption spectrum of haemoglobin. The other wavelength was chosen in order to have other pigments influencing the colour of the skin.
The study was a double-blind, randomized and placebo controlled study. The assessment was based on an inter-subject comparison between the results obtained with cream HEX at 3% (active product), cream Phenylethyl resorcinol at 0.3% and the cream placebo. The measurements were taken in controlled-atmosphere at a temperature of 20° C. and a humidity of 40%. This study was performed on 70 volunteers (aged from 19 to 57 years, having hyperpigmentation spots on their faces.
The study was carried out on 3 groups. A cream formula was applied twice daily on full face. Evaluation was carried out before treatment and after 28 and 56 days. Groups 1 and 2, with 25 volunteers each, have applied placebo and HEX at 3%, respectively, and group 3 with 20 volunteers has applied Phenylethyl Resorcinol at 0.3%.

## CC(c1ccccc1)c1ccc(O)cc1O (centres unmarked) [Phenylethyl resorcinol, phenylethyl resorcinol]
[1]
  reduction of skin redness compared with placebo: same efficacy as what we obtained with the placebo
[1]; 28 and 56 days
  melanin reduction efficacy compared with HEX at 3%: Same melanin reduction efficacy as with HEX at 3%
[2]
  reduction of brown spots compared with HEX: slightly better than HEX
  reduction of visible spots compared with HEX at 3%: efficacy very close to those obtained with HEX at 3%
[3]; African skin explants
  change of percentage of unpigmented cells: +91.7%
  change of percentage of very pigmented cells: −22.7%
[3]; Asian skin explants
  change of percentage of unpigmented cells: +110.7%
  change of percentage of very pigmented cells: −29.2%
[3]; Caucasian skin explants
  change of percentage of unpigmented cells: +38.8%
  change of percentage of very pigmented cells: −4.2%
[4]
  b* parameter on face pigmented spots area: significant reduction of b* parameter
[5]; HEX cream 3% or Phenylethyl Resorcinol cream 0.3% twice daily, after 56 days
  change of melanin content relative to D0: not maintained after 56 days
[5]; cream 0.3% twice daily, after 28 days
  change of melanin content relative to D0: −2.1%
[5]; cream 0.3%, after 28 days
  change of melanin content versus placebo: −4.3%

## Oc1ccc(O)cc1 [Hydroquinone, hydroquinone]
[3]; African skin explants
  change of percentage of unpigmented cells: didn't show any significant results
  change of percentage of very pigmented cells: didn't show any significant results
[3]; Asian skin explants
  change of percentage of unpigmented cells: +54.1%
  change of percentage of very pigmented cells: −25.8%
[3]; Caucasian skin explants
  change of percentage of unpigmented cells: didn't show any significant impact
  change of percentage of very pigmented cells: didn't show any significant impact
